Measured values taken from patent publication US3937838A, “Orally active bronchospasmolytic compounds and their preparation” (priority 1966, dated 1976).
Where two headings read alike, the source gives them in different places.

Columns and labels:
[1] = tested on: bronchospasm induced by histamine aerosol; assay: Protecting effect against histamine aerosol in intact guinea pigs (Example 7c); format: in vivo, guinea pig; conditions: Cavia porcellus, m ± s.e., read-out: ED50 (protecting 50 per cent of the animals for more than 4 minutes)
Method: The compounds KWD2109 and KWD2025 have been compared in preventing bronchospasm induced by histamine aerosol in guinea pigs.
The drug was injected intraperitoneally 15 minutes (Table 2) or administered orally 30 minutes (Table 3) before histamine treatment. The dose of the drugs protecting 50 per cent of the animals for more than 4 minutes is denoted "ED50". In untreated animals only 1-2 percent will withstand the histamine aerosol for more than 4 minutes.
To study the duration of the effect, 2 mg/kg was administered orally to intact guinea pigs at different time intervals before the histamine treatment. Two series each including eleven groups of six animals was studied. The groups were tested in histamine aerosol 10, 20, 30, 40, 50, 60, 120, 180, 240, 300 and 360 minutes after the administration of the compound. The per cent of animals in each group protected more than 4 minutes and more than 10 minutes was determined.

isolated rabbit heart = assay: Effect on isolated heart, Langendorff preparation (Example 5d); conditions: same procedure
Method: The effect of the compound of the present invention was also studied on isolated rabbit heart (Langendorff preparation) the method used as described by Anden et al. (Acta Pharmacol. et Toxicol., 21 (1964) page 247). In this procedure, the isolated heart is mounted in a Krebs solution and the test compound is injected into it. Measurements are continuously recorded of the rate and force of contraction.
The tests using epinephrine establish a standard of comparison to evaluate subsequent test compounds in the same preparation.

[2] = Acute toxicity in mice (Example 9); conditions: mouse, in vivo, iv, mice
[3] = tested on: isolated guinea pig auricle; assay: Dual bath preparation, effect on left auricle (Example 8a); conditions: same bath
Method: The left auricle was dissected out and mounted together with spirally-cut trachea from the same animal in a 100 ml bath in Kreb's solution (37°C.) well aereated with a mixture of oxygen (95%) and carbon dioxide (5%). The auricle was electrically stimulated with square wave pulses from a Techtronic Stimulator (voltage 2-4; duration: 10 m sec; frequency 1 per second). This is, in general, the same procedure described above in Example 5c.
Using the dual bath preparation, tests were made of the effect on the trachea and auricle of KWD2025 (of the present invention) and of the known drugs KWD2109 and epinephrine. The drug to be tested was added to the bath in the predetermined amount and allowed to act upon the organs for 10 minutes.

[4] = tested on: isolated guinea pig heart; assay: Effect on isolated guinea pig heart, Langendorff (Example 7d); conditions: KWD2025 given index 1.0
Method: The isolated guinea pig heart was perfused according to Langendorff. The method used is described by Anden et al. (Acta. Pharmacol. et Toxicol. 21, 247, 1964). Contractions in the heart were recorded by means of a force displacement transducer and aa Grass polygraph Model 7. Epinephrine was used as reference. KWD2109 and KWD2025 were tested on the same preparation. The comparisons of effects were based on dose for 50 percent increase in chronotropic effect and 10 percent increase in inotropic effect.

[5] = tested on: histamine induced bronchoconstriction; assay: Bronchospasmolytic effect in vivo, Konzett and Rossler (Example 5b); design: species or system guinea pig; conditions: measured as described above
Method: Orciprenaline and terbutaline were also tested in vivo according to the method described by Konzett and Rossler [Arch. Exp. Path. Pharmak. 195 (1940) page 71]. In the method of Konzett and Rossler, the animal is ventilated with a constant volume of air. When a certain pressure has been reached in the lung, the volume of air which is in excess of the pulmonary capacity will escape through the valve. This surplus of air is recorded. The testing compounds in the Konzett and Rossler method, bronchial contraction is provoked by administration of histamine. The histamine reduced the capacity of the airways, and the measured overflow increases. In order to see to what extent a test compound counteracts the histamine-induced bronchospasm, the animal is first given an injection of the test compound which is followed 3 minutes later by exposure to histamine.

[6] = tested on: histamine-induced bronchospasm; assay: Bronchospasmolytic effect in the anesthetized cat, Konzett & Rossler (Example 14); format: in vivo; conditions: i.v.; based on ED50-values; weight basis; Table 8
Method: Bronchospasmolytic effect was studied according to the method of Konzett & Rossler (see Example 5b above). Bronchospasm was induced by i.v. injections of histamine into the left jugular vein. Overflow was recorded by means of a Grass volume transducer and a Grass polygraph model 5. Changes in arterial mean pressure and heart rate, were continuously recorded during the experiment. Terbutaline was used as reference in all experiments. The comparisons are based on ED50 -values.

[7] = Toxicity study in mice (Example 18); format: in vivo; conditions: mouse, in vivo, mice (NMRI, male), 24 hours, read-out: LD 50 + Standard error
Method: (§1) The toxicity was studied in mice (NMRI, male, 18-28 g) 24 hours after i.v. and oral administration. The animals were observed during five days. No further deaths occurred.

mice = assay: Toxicity study in mice (Example 18); format: in vivo; conditions: indicated by higher oral toxicity
Method: as §1

guinea pig trachea = assay: Bronchospasmolytic effect in vitro (Example 13); conditions: for bronchospasmolytic effect x (-)epinephrine: based on ED50-values, weight basis, Table 7; for bronchospasmolytic effect in vitro relative to terbutaline: per se
Method: The trachea from a guinea pig was dissected out and spirally cut. It was mounted in a water-jacketed bath (37°C.) in Krebs solution and aerated with oxygen (95%) and carbon dioxide (5%). Pilocarpine (2 μg/ml) was added. The load was adjusted to about 2 g and relaxations in the trachea were recorded by means of a Grass force displacement transducer and a Grass polygraph model 5 (see Example 5 above). The cumulative method was used (-)-Epinephrine was used as reference. The comparisons presented in Table 7 are based on ED50 -values.

[8] = tested on: isolated guinea pig heart; assay: Effect on isolated heart from guinea pig, Langendorff (Example 16); conditions: for direct heart effect relative to terbutaline: per se
Method: The isolated guinea pig heart was perfused according to Langendorff. The method used is described by Anden et al. [Acta Pharmacol. et Toxicol. 21, 247, (1964)]. Contractions in the heart were recorded by a force displacement transducer and a Grass polygraph model 5. The recovery of the heart was tested with (-) epinephrine between every dose of the substance tested. Terbutaline was used as reference.

[9] = tested on: bronchoconstriction by histamine aerosol; assay: Protecting effect against histamine aerosol in guinea pigs (Example 15); format: in vivo, guinea pig; conditions: for ED50: Cavia porcellus, read-out: ED50 (protecting 50 percent of the animals for more than 4 minutes)
Description: Male guinea pigs (200--300 g) were used. Bronchoconstriction was produced by letting the animals inhale a histamine aerosol.

[10] = tested on: arterial mean pressure, pulse pressure, heart rate, peripheral vascular resistance; assay: Haemodynamic studies in anesthetized cats (Example 17); format: in vivo, cat
Method: The haemodynamic effects of KWD2058 and terbutaline were studied in anesthetized cats after i.v. injection in the left femoral vein. Three experiments were done. The effects on arterial mean pressure, pulse pressure (right carotid artery) and heart rate were recorded.
To study the effect of the compounds on the peripheral vascular resistance, constant flow was arranged in the right hind limb on two cats by means of a Sigma motor pump connected to arteria femoralis. Injections were made intra-arterially and variations in the peripheral resistance were recorded as pressure changes.

[11] = tested on: spirally cut trachea from the guinea pig; assay: Dual preparation test in vitro, effect on trachea (Example 5c); conditions: slow infusion; 0.375 μg/min where stated; FIGS. 2-4
Description: (§2) [This procedure is more fully described below in Example 5 (b)].
(§3) FIG. 2 illustrates the effect of epinephrine (EPE) and terbutaline on spirally cut trachea and right auricle from the guinea pig. Both preparations are dissected out from the same animal and run under identical experimental conditions;
(§4) Both preparations are dissected out from the same animal, and run under identical experimental conditions;
(§5) Both preparations are dissected out from the same animal and run under identical experimental conditions;
(§6) The relation between the heart stimulatory effect and bronchodilator effect was studied in vitro on auricle-trachea-preparation from the guinea pig in order to compare the effect on the heart and the effect on the bronchial muscle under identical experimental conditions. Both spontaneously bearing auricle and spirally-cut trachea were placed in the same bath in Krebs solution. Both preparations were taken from the same animal.
(§7) The compound to be tested was slowly infused into the bathing solution and the tension was measured for each of the auricle and trachael preparations.
(§8) In carrying out this dual preparation test, epinephrine was used as a reference. […] Infusion of epinephrine was made over a period of ten minutes. After washing and recovery, the test solution was infused in the same manner and the effect of the test compound was compared with the effect of epinephrine.

[12] = tested on: right auricle from the guinea pig; assay: Dual preparation test in vitro, effect on auricle (Example 5c); conditions: slow infusion; 0.375 μg/min where stated; FIGS. 2-4
Description: as §2, §3, §4, §5, §6, §7, §8
Referring more specifically to FIG. 2, the upper portion of each chart thereof represents the tension continuously recorded of the auricle preparation (shaded area 1 for the effect of epinephrine on the auricle, ref. no. 2 for the effect of terbutaline infused at a rate of 0.2 μg/min on the auricle, and ref. no. 3 for the effect of terbutaline infused at a rate of 0.375μg/min on the auricle).

SMILES | bronchospasmolytic effect x terbutaline [6] | LD50 at 24 h ([7]; iv) [mg/kg] | LD50 at 24 h ([7]; po) [mg/kg] | oral absorption in comparison with terbutaline (mice) | bronchospasmolytic effect x (-)epinephrine (guinea pig trachea) | bronchospasmolytic effect in vitro relative to terbutaline (guinea pig trachea) | effect on heart rate x terbutaline ([8]; Table 10) | direct heart effect relative to terbutaline [8] | ED50 ([9]; ip, 0.25 h) [mg/kg] | ED50 ([9]; po, 0.5 h) [mg/kg] | further results
Oc1cc(O)cc(C(O)CNC2CCC2)c1 (stereo not drawn) [KWD2025, 1-(3',5'-dihydroxyphenyl)-2-(cyclobutylamino)-ethanol] |  |  |  |  |  |  |  |  |  |  | ED50 ([1]; ip, 0.25 h, i.p., 15 minutes before histamine-aerosol): 0.6 ± 0.07 mg/kg; ED50 ([1]; po, 0.5 h, peroral, 30 minutes before histamine-aerosol): 1.7 ± 0.3 mg/kg; cardiac stimulatory effect relative to epinephrine (isolated rabbit heart): less than 0.1 times; LD50 [2]: 54 mg/kg; effect on force of contraction in auricle in concentrations relaxing the trachea [3]: relaxed the trachea without affecting the auricle; therapeutic index, bronchospasmolytic effect over effect on the heart (inotropic) [4]: 1.0; bronchospasmolytic effect relative to epinephrine [5]: about 0.4 times; bronchospasmolytic effect relative to orciprenaline [5]: about 1.2 times
CC(=O)Oc1cc(OC(C)=O)cc(C(O)CNC(C)(C)C)c1 (stereo not drawn) [KWD2037] | 0.7 ± 0.1 | 112 ± 5 | 2100 | improved oral absorption in comparison with terbutaline | 0.7 | weaker bronchospasmolytic effect in vitro than terbutaline | 0.05 ± 0.01 | much less direct heart effect | 0.7 | 0.4 | effect on force of contraction x terbutaline ([8]; Table 10): 0.03 ± 0.01
CCC(=O)Oc1cc(OC(=O)CC)cc(C(O)CNC(C)(C)C)c1 (stereo not drawn) [KWD2057] | 0.5 | 70 ± 4 | 2200 | improved oral absorption in comparison with terbutaline | 0.4 | weaker bronchospasmolytic effect in vitro than terbutaline | 0.06 | much less direct heart effect | 0.2 | 1 | 
Br.CC(C)C(=O)Oc1cc(OC(=O)C(C)C)cc(C(O)CNC(C)(C)C)c1 (stereo not drawn) [KWD2058, 1-(3',5'-diisobutyryloxyphenyl)-2-(t-butylamino)-ethanol hydrobromide] | 1.0 ± 0.1 | 52 ± 4 | 2150 | improved oral absorption in comparison with terbutaline | 0.6 ± 0.2 | weaker bronchospasmolytic effect in vitro than terbutaline |  | much less direct heart effect |  |  | effect on heart rate ([8]; doses up to 100 μg): no effect; effect on arterial mean pressure, pulse pressure, heart rate and peripheral vascular resistance relative to terbutaline ([10]; cat, summary): about half; arterial mean pressure, x terbutaline ([10]; i.v., anesthetized cats): 0.4+0.1 × terbutaline; heart rate, x terbutaline ([10]; i.v., anesthetized cats): 0.4±0.1 × terbutaline; pulse rate, x terbutaline ([10]; i.v., anesthetized cats, pulse pressure in text): 0.4±0.1 × terbutaline; change in peripheral resistance, x terbutaline ([10]; intra-arterial, right hind limb, constant flow): 0.4±0.1 × terbutaline; ED50 ([9]; 0.5 h, oral, 30 minutes before histamine): 0.15 mg/kg; ED50 ([9]; ip, 0.25 h, i.p., 15 minutes before histamine): 1 mg/kg; protecting effect relative to terbutaline ([9]; oral): 2.5 times; oral absorption in comparison with terbutaline ([9]; seen in oral ED50, Table 9): particularly good oral absorption in comparison with terbutaline
NC[C@H](O)c1ccc(O)c(O)c1 [norepinephrine, reference compound] |  |  |  |  |  |  |  |  |  |  | effect on trachea (relaxation) [11]: without affecting the bronchial muscles; effect on auricle (tension) [12]: strong effect on the heart muscle
